Results published in the NIST ThermoML archive (doi:10.1021/je060271a).

Conditions: 283.15 K, Liquid, Vibrating tube method

CCCCCC(=O)OCC(COC(=O)CCCCC)(COC(=O)CCCCC)COC(=O)CCCCC [pentaerythritol tetrahexanoate]
Conditions | mass density [kg/m3]
1506.3 kPa | 1004.9
1520.4 kPa | 1005.1
1534.6 kPa | 1005.1
1551.6 kPa | 1005.1
1566 kPa | 1005.2
1580.3 kPa | 1005
1737.7 kPa | 1005.1
1752.5 kPa | 1005.1
1815.1 kPa | 1005.3
1862 kPa | 1005.2
1876.2 kPa | 1005.2
1889.8 kPa | 1005.2
1905.4 kPa | 1005.1
1918.9 kPa | 1005.2
1932.5 kPa | 1005.2
1949.3 kPa | 1005.2
1963.5 kPa | 1005.2
1978.6 kPa | 1005.2
1993.5 kPa | 1005.3
2005.3 kPa | 1005.3
2024.6 kPa | 1005.3
2039 kPa | 1005.3
2053.8 kPa | 1005.3
2068.7 kPa | 1005.3
2086.4 kPa | 1005.3
2102 kPa | 1005.4
2118 kPa | 1005.4
2136.7 kPa | 1005.4
2153 kPa | 1005.4
2165.7 kPa | 1005.4
2185.6 kPa | 1005.4
2205.4 kPa | 1005.4
2292.8 kPa | 1005.5
2303.8 kPa | 1005.5
2314.9 kPa | 1005.4
2328.2 kPa | 1005.4
2339.2 kPa | 1005.5
2350.1 kPa | 1005.5
2363.3 kPa | 1005.4
2374.2 kPa | 1005.4
2385.1 kPa | 1005.4
2398.1 kPa | 1005.5
2409.2 kPa | 1005.6
2420.2 kPa | 1005.6
2433.2 kPa | 1005.5
2443.9 kPa | 1005.6
2455 kPa | 1005.6
2468.4 kPa | 1005.6
2479.7 kPa | 1005.6
2490.8 kPa | 1005.5
2502 kPa | 1005.6
2515.9 kPa | 1005.6
2526.8 kPa | 1005.5
2552.3 kPa | 1005.6
2576.1 kPa | 1005.6
2587.9 kPa | 1005.7
2601.9 kPa | 1005.7
2613.9 kPa | 1005.7
2626 kPa | 1005.6
2640.3 kPa | 1005.7
2652.7 kPa | 1005.6
2664.9 kPa | 1005.8
2679.3 kPa | 1005.7
2692.1 kPa | 1005.6
2704.8 kPa | 1005.7
2717.4 kPa | 1005.8
2732.7 kPa | 1005.8
2745.7 kPa | 1005.8
2756.3 kPa | 1005.7
2768.9 kPa | 1005.7
2784.7 kPa | 1005.7
2800 kPa | 1005.8
2826.3 kPa | 1005.9
2841.9 kPa | 1005.7
2869.2 kPa | 1005.8
2883.2 kPa | 1005.8
2897.6 kPa | 1005.8
2911.3 kPa | 1005.7
2927.9 kPa | 1005.8
2942 kPa | 1005.9
2956 kPa | 1005.9
2973 kPa | 1005.9
2987.2 kPa | 1005.9
3001.4 kPa | 1005.9
3015.3 kPa | 1005.8
3032.1 kPa | 1005.8
3046.9 kPa | 1005.9
3061.4 kPa | 1005.9
3079.7 kPa | 1005.7
3094.3 kPa | 1006
3108.7 kPa | 1005.9
3123.8 kPa | 1006
3141.8 kPa | 1006
3157 kPa | 1006
3172.3 kPa | 1006
3187.9 kPa | 1005.9
3203.2 kPa | 1006
3221.5 kPa | 1005.9
3236.8 kPa | 1006.1
3337.6 kPa | 1006.1
3353.6 kPa | 1006.1
3404.7 kPa | 1006.2
3956.5 kPa | 1006.4
3974.5 kPa | 1006.6
3996.3 kPa | 1006.6
4014.4 kPa | 1006.5
4032.7 kPa | 1006.5
4054 kPa | 1006.5
4072 kPa | 1006.5
4090 kPa | 1006.6
4111.5 kPa | 1006.5
4129.7 kPa | 1006.7
4147.7 kPa | 1006.6
4165.7 kPa | 1006.5
4186.7 kPa | 1006.6
4204.2 kPa | 1006.6
4221.8 kPa | 1006.7
4239.5 kPa | 1006.7
4260.6 kPa | 1006.6
4277.8 kPa | 1006.6
4294.9 kPa | 1006.7
4314.8 kPa | 1006.6
4331.6 kPa | 1006.6
4348.2 kPa | 1006.7
4364.2 kPa | 1006.7
4383.5 kPa | 1006.7
4399.6 kPa | 1006.7
4414.7 kPa | 1006.7
4432.7 kPa | 1006.6
4448.3 kPa | 1006.8
4462.4 kPa | 1006.6
4476.2 kPa | 1006.7
4489.5 kPa | 1006.7
4504.9 kPa | 1006.8
4517.6 kPa | 1006.8
4530.4 kPa | 1006.7
4542.7 kPa | 1006.7
4556.9 kPa | 1006.8
4568.3 kPa | 1006.8
4579.5 kPa | 1006.7
4590.6 kPa | 1006.8
4604.1 kPa | 1006.8
4613.3 kPa | 1006.9
4626.1 kPa | 1006.8
